Source: ChEMBL document CHEMBL4028801, “A multifactorial approach to hepatobiliary transporter assessment enables improved therapeutic compound development” (Toxicol Sci, 2013)

Assays:
[1] = molecular target: ATP-binding cassette sub-family C member 3 (Homo sapiens, UniProt O15438); experiment: Inhibition of human MRP3 overexpressed in Sf9 insect cell membrane vesicles assessed as uptake of [3H]-estradiol-17beta-D-glucuronide in presence of ATP and GSH measured after 10 mins by membrane vesicle transport assay; type: ADME, cell-based
ATP-binding cassette sub-family C member 3, sequence (O15438 whole entry): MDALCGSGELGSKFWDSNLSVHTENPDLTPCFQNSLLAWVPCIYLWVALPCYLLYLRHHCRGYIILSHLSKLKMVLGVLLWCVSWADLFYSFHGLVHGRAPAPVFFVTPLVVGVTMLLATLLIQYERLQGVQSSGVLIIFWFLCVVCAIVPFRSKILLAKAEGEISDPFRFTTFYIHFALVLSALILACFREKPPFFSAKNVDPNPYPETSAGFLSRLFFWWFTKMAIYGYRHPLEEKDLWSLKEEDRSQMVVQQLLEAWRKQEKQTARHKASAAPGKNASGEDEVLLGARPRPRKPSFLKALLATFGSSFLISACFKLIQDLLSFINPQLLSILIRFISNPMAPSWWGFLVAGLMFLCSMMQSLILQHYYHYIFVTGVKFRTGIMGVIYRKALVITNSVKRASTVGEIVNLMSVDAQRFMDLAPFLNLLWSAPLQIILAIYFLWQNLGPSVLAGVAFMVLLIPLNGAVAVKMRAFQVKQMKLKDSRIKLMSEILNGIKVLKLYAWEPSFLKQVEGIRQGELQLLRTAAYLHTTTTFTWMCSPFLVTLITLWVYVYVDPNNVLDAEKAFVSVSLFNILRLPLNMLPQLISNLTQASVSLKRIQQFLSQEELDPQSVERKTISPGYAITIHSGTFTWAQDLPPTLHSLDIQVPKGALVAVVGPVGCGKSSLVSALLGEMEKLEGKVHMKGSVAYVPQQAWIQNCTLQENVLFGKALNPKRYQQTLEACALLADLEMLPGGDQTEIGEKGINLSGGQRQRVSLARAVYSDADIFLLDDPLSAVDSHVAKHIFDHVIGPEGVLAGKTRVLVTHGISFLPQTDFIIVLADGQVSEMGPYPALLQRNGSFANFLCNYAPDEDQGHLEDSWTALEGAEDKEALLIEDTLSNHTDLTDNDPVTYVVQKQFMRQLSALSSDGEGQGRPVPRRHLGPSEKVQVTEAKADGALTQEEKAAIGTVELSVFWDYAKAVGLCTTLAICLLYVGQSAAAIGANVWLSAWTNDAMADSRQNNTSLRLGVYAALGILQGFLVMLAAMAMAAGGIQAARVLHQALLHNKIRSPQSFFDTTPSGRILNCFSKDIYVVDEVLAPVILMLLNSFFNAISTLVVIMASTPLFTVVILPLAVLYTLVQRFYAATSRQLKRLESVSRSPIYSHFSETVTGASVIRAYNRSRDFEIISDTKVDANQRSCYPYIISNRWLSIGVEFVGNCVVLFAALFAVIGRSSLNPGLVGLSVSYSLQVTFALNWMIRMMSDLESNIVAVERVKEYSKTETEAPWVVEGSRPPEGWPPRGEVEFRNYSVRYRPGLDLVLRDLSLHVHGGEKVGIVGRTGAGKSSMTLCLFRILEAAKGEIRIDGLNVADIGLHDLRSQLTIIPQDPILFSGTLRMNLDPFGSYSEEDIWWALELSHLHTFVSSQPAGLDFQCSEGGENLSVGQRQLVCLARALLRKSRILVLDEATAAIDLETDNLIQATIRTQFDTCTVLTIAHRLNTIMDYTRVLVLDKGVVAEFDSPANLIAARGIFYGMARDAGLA

[2] = Drug concentration at steady state in human at 75 to 600 mg, iv QD after 24 hrs; type: ADME, organism-based; conditions: in vivo, read-out: Css
[3] = AUC in human at 75 to 600 mg, iv QD after 24 hrs; type: ADME, organism-based; conditions: in vivo
[4] = molecular target: ATP-binding cassette sub-family C member 2 (Homo sapiens, UniProt Q92887); experiment: Inhibition of human MRP2 overexpressed in Sf9 cell membrane vesicles assessed as uptake of [3H]-estradiol-17beta-D-glucuronide in presence of ATP and GSH measured after 20 mins by membrane vesicle transport assay
ATP-binding cassette sub-family C member 2, sequence (Q92887 whole entry): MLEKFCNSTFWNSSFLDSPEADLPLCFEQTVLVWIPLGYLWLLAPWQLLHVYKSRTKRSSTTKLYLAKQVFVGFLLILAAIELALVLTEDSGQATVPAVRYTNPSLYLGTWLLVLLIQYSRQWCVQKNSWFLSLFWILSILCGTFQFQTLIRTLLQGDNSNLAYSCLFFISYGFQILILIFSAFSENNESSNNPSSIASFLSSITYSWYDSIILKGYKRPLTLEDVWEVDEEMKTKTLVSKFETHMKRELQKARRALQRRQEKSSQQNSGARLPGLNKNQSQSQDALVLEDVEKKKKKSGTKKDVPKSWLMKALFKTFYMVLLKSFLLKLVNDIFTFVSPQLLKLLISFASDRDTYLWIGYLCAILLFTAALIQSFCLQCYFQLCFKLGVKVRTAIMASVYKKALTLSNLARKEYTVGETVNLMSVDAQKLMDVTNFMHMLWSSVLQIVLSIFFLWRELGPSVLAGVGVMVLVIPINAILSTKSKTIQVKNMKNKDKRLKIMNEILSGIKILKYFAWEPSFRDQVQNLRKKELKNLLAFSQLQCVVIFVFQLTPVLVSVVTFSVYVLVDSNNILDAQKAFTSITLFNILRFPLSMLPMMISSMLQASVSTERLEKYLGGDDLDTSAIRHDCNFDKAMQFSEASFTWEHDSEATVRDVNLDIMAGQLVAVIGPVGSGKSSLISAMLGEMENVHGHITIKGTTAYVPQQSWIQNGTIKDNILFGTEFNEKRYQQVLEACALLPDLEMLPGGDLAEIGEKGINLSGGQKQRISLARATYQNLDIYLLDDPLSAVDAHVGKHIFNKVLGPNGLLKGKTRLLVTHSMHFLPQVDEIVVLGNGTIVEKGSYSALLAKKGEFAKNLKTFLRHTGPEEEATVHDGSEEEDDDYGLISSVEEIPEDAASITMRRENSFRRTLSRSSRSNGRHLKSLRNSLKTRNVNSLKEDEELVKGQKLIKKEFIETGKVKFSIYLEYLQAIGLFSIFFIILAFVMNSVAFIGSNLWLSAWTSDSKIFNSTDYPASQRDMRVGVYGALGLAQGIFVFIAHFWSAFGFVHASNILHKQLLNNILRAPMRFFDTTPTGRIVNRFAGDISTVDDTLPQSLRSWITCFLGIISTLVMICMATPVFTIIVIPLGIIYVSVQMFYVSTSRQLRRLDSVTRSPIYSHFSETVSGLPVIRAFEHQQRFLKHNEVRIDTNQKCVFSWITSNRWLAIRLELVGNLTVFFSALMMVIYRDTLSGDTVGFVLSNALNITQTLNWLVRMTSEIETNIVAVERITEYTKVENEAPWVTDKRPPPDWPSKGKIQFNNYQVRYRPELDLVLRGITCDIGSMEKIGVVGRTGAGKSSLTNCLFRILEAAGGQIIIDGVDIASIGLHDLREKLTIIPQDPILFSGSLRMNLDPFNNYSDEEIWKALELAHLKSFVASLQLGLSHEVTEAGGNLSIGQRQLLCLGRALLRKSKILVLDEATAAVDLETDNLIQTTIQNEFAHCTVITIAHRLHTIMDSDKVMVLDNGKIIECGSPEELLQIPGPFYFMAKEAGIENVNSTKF

[5] = Ratio of drug concentration at steady state in human at 1 to 1.5 g, po BID after 12 hrs to IC50 for human BSEP overexpressed in Sf9 insect cells; type: ADME, organism-based; conditions: in vivo
[6] = Drug concentration at steady state in human at 1 to 1.5 g, po BID after 12 hrs; type: ADME, organism-based; conditions: in vivo, read-out: Css
[7] = molecular target: Bile salt export pump (Homo sapiens, UniProt O95342); experiment: Inhibition of human BSEP overexpressed in Sf9 cell membrane vesicles assessed as uptake of [3H]-taurocholate in presence of ATP measured after 15 to 20 mins by membrane vesicle transport assay; type: ADME, cell-based
Bile salt export pump, sequence (O95342 whole entry): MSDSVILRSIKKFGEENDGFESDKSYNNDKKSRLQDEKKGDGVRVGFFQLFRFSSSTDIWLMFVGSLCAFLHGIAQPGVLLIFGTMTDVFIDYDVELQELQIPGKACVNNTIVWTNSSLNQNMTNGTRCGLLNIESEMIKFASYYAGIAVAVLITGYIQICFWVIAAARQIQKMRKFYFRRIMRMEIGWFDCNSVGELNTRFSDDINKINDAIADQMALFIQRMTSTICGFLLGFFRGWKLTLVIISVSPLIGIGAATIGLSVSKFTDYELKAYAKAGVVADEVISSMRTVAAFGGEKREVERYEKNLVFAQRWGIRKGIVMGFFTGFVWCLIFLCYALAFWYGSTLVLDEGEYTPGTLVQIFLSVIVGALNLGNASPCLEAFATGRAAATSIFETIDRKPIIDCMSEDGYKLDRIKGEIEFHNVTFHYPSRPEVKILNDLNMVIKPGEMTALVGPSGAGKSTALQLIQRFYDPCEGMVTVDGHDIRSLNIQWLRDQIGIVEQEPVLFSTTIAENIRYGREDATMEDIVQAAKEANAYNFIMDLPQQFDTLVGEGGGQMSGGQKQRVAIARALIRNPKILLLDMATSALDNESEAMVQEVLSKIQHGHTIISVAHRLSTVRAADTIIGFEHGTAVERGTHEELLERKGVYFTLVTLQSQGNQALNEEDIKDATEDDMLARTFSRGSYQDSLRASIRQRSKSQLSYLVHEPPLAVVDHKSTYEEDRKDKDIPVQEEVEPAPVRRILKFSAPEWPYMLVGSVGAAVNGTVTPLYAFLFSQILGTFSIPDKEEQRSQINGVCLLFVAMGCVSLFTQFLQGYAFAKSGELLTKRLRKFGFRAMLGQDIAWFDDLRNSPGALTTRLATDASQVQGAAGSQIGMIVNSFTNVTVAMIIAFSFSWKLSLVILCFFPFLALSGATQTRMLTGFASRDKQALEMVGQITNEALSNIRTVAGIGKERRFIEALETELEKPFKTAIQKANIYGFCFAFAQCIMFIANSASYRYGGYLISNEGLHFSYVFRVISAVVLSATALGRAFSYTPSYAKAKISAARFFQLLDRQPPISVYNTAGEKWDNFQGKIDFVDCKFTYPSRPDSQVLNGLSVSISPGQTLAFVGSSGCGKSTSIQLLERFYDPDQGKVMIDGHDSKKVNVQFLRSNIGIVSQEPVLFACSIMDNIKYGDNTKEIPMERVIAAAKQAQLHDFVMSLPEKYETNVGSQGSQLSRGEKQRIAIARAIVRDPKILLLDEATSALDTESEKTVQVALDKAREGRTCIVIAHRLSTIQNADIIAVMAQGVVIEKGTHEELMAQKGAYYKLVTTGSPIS

[8] = AUC in human at 1 to 1.5 g, po BID after 12 hrs; type: ADME, organism-based; conditions: in vivo
[9] = Ratio of drug concentration at steady state in human at 1 to 1.5 g, po BID after 12 hrs to IC50 for human MRP4 overexpressed in Sf9 insect cells; type: ADME, organism-based; conditions: in vivo
[10] = molecular target: T1, ATP-binding cassette sub-family C member 4 (Homo sapiens, UniProt O15439); experiment: Inhibition of human MRP4 overexpressed in Sf9 cell membrane vesicles assessed as uptake of [3H]-estradiol-17beta-D-glucuronide in presence of ATP and GSH measured after 20 mins by membrane vesicle transport assay; type: ADME, cell-based
T1 sequence (O15439 whole entry): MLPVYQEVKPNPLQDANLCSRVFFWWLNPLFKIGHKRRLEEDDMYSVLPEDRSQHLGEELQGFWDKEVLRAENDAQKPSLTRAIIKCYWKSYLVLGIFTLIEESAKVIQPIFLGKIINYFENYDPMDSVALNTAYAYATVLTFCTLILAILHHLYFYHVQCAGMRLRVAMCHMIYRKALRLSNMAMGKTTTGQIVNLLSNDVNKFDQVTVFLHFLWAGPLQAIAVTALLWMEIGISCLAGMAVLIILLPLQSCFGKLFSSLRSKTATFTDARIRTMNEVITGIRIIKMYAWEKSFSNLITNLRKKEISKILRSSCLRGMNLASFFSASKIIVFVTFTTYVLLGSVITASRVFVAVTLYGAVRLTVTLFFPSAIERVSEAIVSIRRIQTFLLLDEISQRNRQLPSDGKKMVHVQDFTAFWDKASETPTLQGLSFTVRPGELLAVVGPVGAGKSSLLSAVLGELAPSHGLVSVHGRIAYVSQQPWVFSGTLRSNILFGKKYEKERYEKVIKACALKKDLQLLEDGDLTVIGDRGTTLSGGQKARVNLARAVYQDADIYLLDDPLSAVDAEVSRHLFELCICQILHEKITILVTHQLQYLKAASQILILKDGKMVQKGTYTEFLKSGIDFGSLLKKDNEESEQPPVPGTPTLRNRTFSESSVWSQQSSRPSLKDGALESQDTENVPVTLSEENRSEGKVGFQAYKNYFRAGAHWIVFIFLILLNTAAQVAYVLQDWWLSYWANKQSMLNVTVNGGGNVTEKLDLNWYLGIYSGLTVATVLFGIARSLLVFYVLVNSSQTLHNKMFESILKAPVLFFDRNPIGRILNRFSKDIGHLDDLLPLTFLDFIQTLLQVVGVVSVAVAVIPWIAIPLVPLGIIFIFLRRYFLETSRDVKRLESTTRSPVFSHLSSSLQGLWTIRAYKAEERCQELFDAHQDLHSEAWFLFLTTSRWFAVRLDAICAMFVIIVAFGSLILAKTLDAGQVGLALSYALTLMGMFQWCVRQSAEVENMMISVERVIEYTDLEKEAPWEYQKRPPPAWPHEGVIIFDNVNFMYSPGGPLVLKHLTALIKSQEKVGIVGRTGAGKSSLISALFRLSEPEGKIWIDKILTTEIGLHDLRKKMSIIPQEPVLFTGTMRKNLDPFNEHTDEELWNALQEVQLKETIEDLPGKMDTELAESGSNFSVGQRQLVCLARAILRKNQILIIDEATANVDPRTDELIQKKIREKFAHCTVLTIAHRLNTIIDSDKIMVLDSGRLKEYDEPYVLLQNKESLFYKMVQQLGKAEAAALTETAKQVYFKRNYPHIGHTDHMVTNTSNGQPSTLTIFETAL

[11] = Ratio of drug concentration at steady state in human at 200 to 800 mg, po QD after 24 hrs to IC50 for human BSEP overexpressed in Sf9 insect cells; type: ADME, organism-based; conditions: in vivo
[12] = Ratio of drug concentration at steady state in human at 200 to 800 mg, po QD after 24 hrs to IC50 for human MRP4 overexpressed in Sf9 insect cells; type: ADME, organism-based; conditions: in vivo
[13] = AUC in human at 200 to 800 mg, po QD after 24 hrs; type: ADME, organism-based; conditions: in vivo
[14] = Drug concentration at steady state in human at 200 to 800 mg, po QD after 24 hrs; type: ADME, organism-based; conditions: in vivo, read-out: Css
[15] = Ratio of drug concentration at steady state in human at 15 to 60 mg, po QD after 24 hrs to IC50 for human MRP4 overexpressed in Sf9 insect cells; type: ADME, organism-based; conditions: in vivo
[16] = AUC in human at 15 to 60 mg, po QD after 24 hrs; type: ADME, organism-based; conditions: in vivo
[17] = Ratio of drug concentration at steady state in human at 15 to 60 mg, po QD after 24 hrs to IC50 for human BSEP overexpressed in Sf9 insect cells; type: ADME, organism-based; conditions: in vivo
[18] = Drug concentration at steady state in human at 15 to 60 mg, po QD after 24 hrs; type: ADME, organism-based; conditions: in vivo, read-out: Css
[19] = AUC in human at 600 mg, po BID after 12 hrs; type: ADME, organism-based; parameters: dose 600 mg, time < 12 hr, route oral; conditions: in vivo
[20] = Drug concentration at steady state in human at 600 mg, po BID after 12 hrs; type: ADME, organism-based; conditions: in vivo, read-out: Css
[21] = AUC in human at 100 to 200 mg, po TID after 8 hrs; type: ADME, organism-based; conditions: in vivo
[22] = Drug concentration at steady state in human at 100 to 200 mg, po TID after 8 hrs; type: ADME, organism-based; conditions: in vivo, read-out: Css
[23] = Ratio of drug concentration at steady state in human at 100 to 200 mg, po TID after 8 hrs to IC50 for human MRP4 overexpressed in Sf9 insect cells; type: ADME, organism-based; conditions: in vivo
[24] = Ratio of drug concentration at steady state in human at 100 to 200 mg, po TID after 8 hrs to IC50 for human MRP3 overexpressed in Sf9 insect cells; type: ADME, organism-based; conditions: in vivo
[25] = Ratio of drug concentration at steady state in human at 100 to 200 mg, po TID after 8 hrs to IC50 for human BSEP overexpressed in Sf9 insect cells; type: ADME, organism-based; conditions: in vivo

Work on `CN(C)C(=O)CCSC(SCCC(=O)O)c1cccc(/C=C/c2ccc3ccc(Cl)cc3n2)c1` (stereo unspecified) [MK-571] yielded an IC50 [1] of 9.3 µM, a concentration at 24 h [2] of 18.6 µM and an AUC at 24 h [3] of 447 µM·h. For the same molecule, the IC50 [4] was over 133 µM.
`COc1c(C)c2c(c(O)c1C/C=C(\C)CCC(=O)OCCN1CCOCC1)C(=O)OC2` [MYCOPHENOLATE MOFETIL] gave an IC50 [1] of over 133 µM, a Ratio [5] of 49.945 and a concentration at 12 h [6] of 3810 µM. For the same molecule, the IC50 [7] was 76 µM, the AUC at 12 h [8] was 45700 ng·h/mL and the Ratio [9] was 45.853. It also gave an IC50 [10] of 83 µM and an IC50 [4] of over 133 µM.
Molecule `Cc1ccc(Nc2nccc(N(C)c3ccc4c(C)n(C)nc4c3)n2)cc1S(N)(=O)=O` [PAZOPANIB] has an IC50 [1] of over 133 µM, a Ratio [11] of 9.588 and a Ratio [12] of 12.192. It also gave an AUC at 24 h [13] of 2370 µM·h, an IC50 [7] of 10.3 µM and a concentration at 24 h [14] of 98.8 µM. The IC50 [10] was 8.1 µM and the IC50 [4] was over 133 µM.
Work on `CCc1ccc(CCOc2ccc(CC3SC(=O)NC3=O)cc2)nc1` (stereo unspecified) [PIOGLITAZONE] yielded an IC50 [1] of over 133 µM, a Ratio [15] of 0.019 and an AUC at 24 h [16] of 22.4 µM·h. For the same molecule, the Ratio [17] was 2.338, the concentration at 24 h [18] was 0.935 µM and the IC50 [10] was 49.5 µM.
With `CC(C)c1nc(CN(C)C(=O)N[C@H](C(=O)N[C@@H](Cc2ccccc2)C[C@H](O)[C@H](Cc2ccccc2)NC(=O)OCc2cncs2)C(C)C)cs1` [RITONAVIR] the AUC at 12 h [19] was 413 µM·h and the concentration at 12 h [20] was 34.4 µM.
Work on `Cc1ccc(C(=O)c2cc(O)c(O)c([N+](=O)[O-])c2)cc1` [TOLCAPONE] yielded an IC50 [1] of 85 µM, an AUC at 8 h [21] of 179 µM·h and a concentration at 8 h [22] of 22.3 µM. The Ratio [23] was 1.338, the Ratio [24] was 0.263 and the IC50 [7] was 36.6 µM. For the same molecule, the Ratio [25] was 0.611 and the IC50 [10] was 16.7 µM.
